Data on 24 molecules can be found in patent US11053234B2 (GlaxoSmithKline Intellectual Property Development Limited, priority 2016, dated 2021).

Where a name gives a salt, the structure may show the parent alone.

In the experiment the target is T1, haematopoietic prostaglandin D synthase (H-PGDS) (Homo sapiens, UniProt O60760).
T1 construct: Full length human H-PGDS cDNA (Invitrogen Ultimate ORF 10H13026) was amplified by PCR; 6-His (N); TEV protease cleavage site (N); made in house; host or cells: E. coli BL21 (DE3*), vector pET22b+
Description: H-PGDS RapidFire high throughput mass spectrometry assay (conversion of PGH2 to PGD2). In kind it is biochemical. As to conditions: 10 nM H-PGDS, PGH2 formed in situ by COX-2 from arachidonic acid; read-out: Potency Range (mean pIC50) (converted). The method, then: H-PGDS RapidFire™ High Throughput Mass Spectrometry Assay
The H-PGDS RapidFire™ mass spectrometric assay monitors conversion of prostaglandin H2 (PGH2) to prostaglandin D2 (PGD2) by haematopoietic prostaglandin D synthase (H-PGDS). In the assay format described here, the substrate (PGH2) is formed in situ by the action of cyclooxygenase-2 on arachidonic acid. This first step is set up to be fast, and generates a burst of PGH2 at ˜10 μM. The PGH2 is then further converted to PGD2 by the H-PGDS enzyme. […] Plates are then read on the RapidFire™ high throughput solid phase extraction system (Agilent) which incorporates a solid phase extraction step coupled to a triple quadrupole mass spectrometer (AB SCIEX). Relative levels of PGD2 and PGF2α, which acts as a surrogate for substrate, are measured and a percent conversion calculated.
Expression and Purification of H-PGDS Protein
Full length human H-PGDS cDNA (Invitrogen Ultimate ORF 10H13026) was amplified by PCR with the addition of a 5′ 6-His tag and TEV protease cleavage site. The PCR product was digested with Ndel and Xhol and ligated into pET22b+ (Merck Novagen®). Expression was carried out in E. coli strain BL21 (DE3*) using auto-induction Overnight Express™ Instant TB medium (Merck Novagen®) supplemented with 1% glycerol. The culture was first grown at 37° C. and the temperature was reduced to 25° C. when OD600 reached 2.0. Cells were harvested by centrifugation after a further 18 hr. 10 g of E. coli cell pellet was suspended to a total volume of 80 mL in lysis buffer (20 mM Tris-Cl pH 7.5, 300 mM NaCl, 20 mM imidazole, 5 mM β-mercaptoethanol, 10% glycerol). 1 mg/mL protease inhibitors (Protease Inhibitor Cocktail Set III, Merck Calbiochem®) and 1 mg/mL lysozyme were added to the cell suspension. The suspension was then sonicated for 5 min (UltraSonic Processor VCX 750, Cole-Parmer Instrument Co.) with a micro probe (50% amplitude, 10 sec on/off) and then centrifuged at 100,000 g for 90 min (at 4° C.). The supernatant was loaded onto a Ni-NTA HiTrap column (5 mL, GE Healthcare, pre-equilibrated in lysis buffer). The column was washed with 10 column volumes of lysis buffer and eluted with lysis buffer containing 500 mM imidazole. The pooled protein peak fractions were concentrated using a 10 kDa centrifugal filter at 3500 g and 4° C. (Amicon Ultra-15 centrifugal filter unit with Ultracel-10 membrane from Millipore). Further purification of the concentrated protein was carried out using gel filtration chromatography on a HiLoad 26/600 Superdex 75 preparative grade column (GE Healthcare Life Sciences) using 50 mM Tris pH 7.5, 50 mM NaCl, 1 mM dithiothreitol, 1 mM MgCl2. Fractions containing the protein were pooled, concentrated as described above, and stored at −80° C.
Expression and Purification of Cyclooxygenase-2 (COX-2) Protein
The full length human COX-2 gene (accession number L15326) was amplified by PCR to generate an EcoRI-HindIII fragment containing an in-frame FLAG tag. This was subcloned into pFastBac 1 (Invitrogen). The COX2 FLAG plasmid was recombined into the baculovirus genome according to the BAC-to-BAC protocol described by Invitrogen. Transfection into Spodoptera frugiperda (Sf9) insect cells was performed using Cellfectin (Invitrogen), according to the manufacturer's protocol. […] Cells were harvested using a continuous feed centrifuge run at 2500 g at a rate of approximately 2 L/min with cooling. The resultant cell slurry was re-centrifuged in pots (2500 g, 20 min, 4° C.) and the cell paste was stored at −80° C. […] The suspension was sonicated in 500 mL batches for 8×5 seconds at 10 u amplitude with the medium tip of an MSE probe sonicator and subsequently incubated at 4° C. for 90 min with gentle stirring. The lysate was centrifuged at 12000 rpm for 45 min at 4° C. in a Sorvall SLA1500 rotor. The supernatant (1400 mL) was added to 420 mL of 20 mM Tris-Cl pH 7.4, 150 mM NaCl, 0.1 mM EDTA to reduce the concentration of n-octyl-6-D-glucopyranoside to 1% w/v.

T1 sequence (O60760 whole entry): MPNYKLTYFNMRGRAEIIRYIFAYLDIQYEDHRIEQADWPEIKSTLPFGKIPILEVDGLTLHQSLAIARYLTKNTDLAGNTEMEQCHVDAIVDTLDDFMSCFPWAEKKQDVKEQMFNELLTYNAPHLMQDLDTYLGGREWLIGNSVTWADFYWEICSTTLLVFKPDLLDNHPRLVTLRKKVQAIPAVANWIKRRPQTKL

Turning to `CC(C)(O)[C@H]1CC[C@H](NC(=O)[C@H]2C[C@H](Oc3cccc4c3OCC4)C2)CC1` [Example 268, (trans)-3-((2,3-Dihydrobenzofuran-7-yl)oxy)-N-((trans)-4-(2-hydroxypropan-2-yl)cyclohexyl)cyclobutanecarboxamide], the IC50 was 10 to 79.4 nM.

`CNC(=O)c1csc(NC(=O)[C@H]2C[C@H](Oc3cccc4cccnc34)C2)n1` [Example 196, N-Methyl-2-((trans)-3-(quinolin-8-yloxy)cyclobutanecarboxamido)thiazole-4-carboxamide, trifluoroacetic acid salt]: the IC50 was 10 to 79.4 nM.

As for `CC(C)(O)[C@H]1CC[C@H](NC(=O)[C@H]2C[C@H](Oc3ccccc3Cl)C2)CC1` [Example 282, (trans)-3-(2-Chlorophenoxy)-N-((trans)-4-(2-hydroxypropan-2-yl)cyclohexyl)cyclobutanecarboxamide], the IC50 was 100 to 1000 nM.

In the case of `O=C(NC1CN(c2ncc(F)cn2)C1)[C@H]1C[C@H](Oc2cc(F)ccc2OC(F)F)C1` [Example 8, (trans)-3-(2-(Difluoromethoxy)-5-fluorophenoxy)-N-(1-(5-fluoropyrimidin-2-yl)azetidin-3-yl)cyclobutanecarboxamide], the IC50 was 10 to 79.4 nM.

In the case of `Cc1nnc(NC(=O)[C@H]2C[C@H](Oc3cccc4cccnc34)C2)s1` [Example 203, (trans)-N-(5-Methyl-1,3,4-thiadiazol-2-yl)-3-(quinolin-8-yloxy)cyclobutanecarboxamide], the IC50 was 10 to 79.4 nM.

As to `O=C1CC(NC(=O)[C@H]2C[C@H](Oc3cccc4scnc34)C2)c2ccccc2N1` (mixture of isomers) [Example 84, Racemic (trans)-3-(Benzo[d]thiazol-4-yloxy)-N-(2-oxo-1,2,3,4-tetrahydroquinolin-4-yl)cyclobutanecarboxamide], the IC50 was 10 to 79.4 nM.

With `O=C(NC1CN(c2ccccn2)C1)N1CC(Oc2cccc3scnc23)C1` [Example 54, 3-(Benzo[d]thiazol-4-yloxy)-N-(1-(pyridin-2-yl)azetidin-3-yl)azetidine-1-carboxamide], the IC50 is 10 to 79.4 nM.

For the molecule `CC(C)(O)[C@H]1CC[C@H](NC(=O)N2CC(Oc3csc4cccnc34)C2)CC1` [Example 226, N-((trans)-4-(2-Hydroxypropan-2-yl)cyclohexyl)-3-(thieno[3,2-b]pyridin-3-yloxy)azetidine-1-carboxamide], the IC50 was 10 to 79.4 nM.

`O=C(Nc1nccs1)[C@H]1C[C@H](Oc2cc(F)cc3cccnc23)C1` [Example 294, (trans)-3-((6-Fluoroquinolin-8-yl)oxy)-N-(thiazol-2-yl)cyclobutanecarboxamide]: the IC50 is 10 to 79.4 nM.

For `CC(C)(C)c1nnc(NC(=O)[C@H]2C[C@H](Oc3cc(F)ccc3OC(F)F)C2)o1` [Example 16, (trans)-N-(5-(tert-Butyl)-1,3,4-oxadiazol-2-yl)-3-(2-(difluoromethoxy)-5-fluorophenoxy)cyclobutanecarboxamide], the IC50 was 10 to 79.4 nM.

Turning to `Cc1nc(NC(=O)[C@H]2C[C@H](Oc3cccc4cccnc34)C2)oc1C` [Example 175, (trans)-N-(4,5-Dimethyloxazol-2-yl)-3-(quinolin-8-yloxy)cyclobutanecarboxamide], the IC50 was 10 to 79.4 nM.

As to `COc1cc(F)ccc1O[C@H]1C[C@H](C(=O)Nc2nc(C(C)=O)cs2)C1` [Example 276, (trans)-N-(4-Acetylthiazol-2-yl)-3-(4-fluoro-2-methoxyphenoxy)cyclobutanecarboxamide], the IC50 was 10 to 79.4 nM.

With `COc1ccc(F)cc1O[C@H]1C[C@H](C(=O)NC2CC3(C2)CN(c2cc(C#N)ccn2)C3)C1` [Example 148, (trans)-N-(2-(4-Cyanopyridin-2-yl)-2-azaspiro[3.3]heptan-6-yl)-3-(5-fluoro-2-methoxyphenoxy)cyclobutanecarboxamide], the IC50 is 10 to 79.4 nM.

Take `CC(C)(O)C12C3C4C1C1C2C3C41NC(=O)[C@H]1C[C@H](Oc2cccc3scnc23)C1` (stereo partly drawn) [Example 320, (trans)-3-(Benzo[d]thiazol-4-yloxy)-N-(4-(2-hydroxypropan-2-yl)cuban-1-yl)cyclobutane-1-carboxamide]: the IC50 is 10 to 79.4 nM.

On to `O=C(NC1CN(c2ccnc(Cl)n2)C1)[C@H]1C[C@H](Oc2cc(F)ccc2OC(F)F)C1` [Example 6, (trans)-N-(1-(2-Chloropyrimidin-4-yl)azetidin-3-yl)-3-(2-(difluoromethoxy)-5-fluorophenoxy)cyclobutanecarboxamide], for which the IC50 is 10 to 79.4 nM.

Regarding `O=C(NC1CCN(CC(F)(F)F)CC1)[C@H]1C[C@H](Oc2cccc3cccnc23)C1` [Example 224, (trans)-3-(Quinolin-8-yloxy)-N-(1-(2,2,2-trifluoroethyl)piperidin-4-yl)cyclobutanecarboxamide], the IC50 was 10 to 79.4 nM.

Consider `O=C(Nc1ccc(N2CCOCC2)cc1)[C@H]1C[C@H](Oc2cccc3scnc23)C1` [Example 243, (trans)-3-(Benzo[d]thiazol-4-yloxy)-N-(4-morpholinophenyl)cyclobutanecarboxamide], for which the IC50 is 10 to 79.4 nM.

With `O=C(Nc1nc(COC(=O)[C@H]2C[C@H](Oc3cc(F)ccc3OC(F)F)C2)cs1)[C@H]1C[C@H](Oc2cc(F)ccc2OC(F)F)C1` [Example 13, (trans)-(2-((trans)-3-(2-(Difluoromethoxy)-5-fluorophenoxy)cyclobutanecarboxamido)thiazol-4-yl)methyl 3-(2-(difluoromethoxy)-5-fluorophenoxy)cyclobutanecarboxylate], the IC50 was 100 to 1000 nM.

For the molecule `O=C(NC1CN(c2cccnn2)C1)[C@H]1C[C@H](Oc2cccc3scnc23)C1` [Example 245, (trans)-3-(Benzo[d]thiazol-4-yloxy)-N-(1-(pyridazin-3-yl)azetidin-3-yl)cyclobutanecarboxamide], the IC50 was 10 to 79.4 nM.

Regarding `O=C1NCC[C@@H]1NC(=O)N1CC(Oc2cccc3scnc23)C1` [Example 99, (S)-3-(Benzo[d]thiazol-4-yloxy)-N-(2-oxopyrrolidin-3-yl)azetidine-1-carboxamide], the IC50 is 100 to 1000 nM.

Consider `COc1ccc(F)cc1O[C@H]1C[C@H](C(=O)N[C@H]2CC[C@H](OC)CC2)C1` [Example 150, (trans)-3-(5-Fluoro-2-methoxyphenoxy)-N-((trans)-4-methoxycyclohexyl)cyclobutanecarboxamide], for which the IC50 is 10 to 79.4 nM.

For the molecule `CC(C)Nc1nccc(N2CC(NC(=O)[C@H]3C[C@H](Oc4cccc5scnc45)C3)C2)n1` [Example 70, (trans)-3-(Benzo[d]thiazol-4-yloxy)-N-(1-(2-(isopropylamino)pyrimidin-4-yl)azetidin-3-yl)cyclobutanecarboxamide], the IC50 is 100 to 1000 nM.

With `O=C(Nc1nccs1)[C@H]1C[C@H](Oc2cccc3[nH]cnc23)C1` [Example 297, (trans)-3-((1H-Benzo[d]imidazol-4-yl)oxy)-N-(thiazol-2-yl)cyclobutanecarboxamide, di-trifluoroacetic acid salt], the IC50 is 100 to 1000 nM.

Regarding `CC(C)(O)[C@H]1C[C@H](NC(=O)[C@H]2C[C@H](Oc3cccc4cccnc34)C2)C1` [Example 223, (trans)-N-((trans)-3-(2-Hydroxypropan-2-yl)cyclobutyl)-3-(quinolin-8-yloxy)cyclobutanecarboxamide], the IC50 is 100 to 1000 nM.
